Assay results as given in patent US10131652B2, “Pyrimidinyloxy benzene derivatives as herbicides” (E. I. DU PONT DE NEMOURS AND COMPANY, priority 2014, dated 2018).

Tests used:
Type in all cases: in vivo
[1] = system: small-flower umbrella sedge (Cyperus difformis); test: Test C flooded paddy test plant response; conditions: Flood, 250 g ai/ha; scale of 0 to 100 where 0 is no effect and 100 is complete control; 13 to 15 days
Summary of the method: (§1)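 Plants grown to 2-leaf stage, flooded 3 cm above soil; compounds applied directly into paddy water, depth kept throughout. Visual rating versus controls after 13 to 15 days in greenhouse, 0 (no effect) to 100 (complete control).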

[2] = system: ducksalad (Heteranthera limosa); test: Test C flooded paddy test plant response; conditions: Flood, 250 g ai/ha; scale of 0 to 100 where 0 is no effect and 100 is complete control; 13 to 15 days
Summary of the method: as §1

rice (Oryza sativa) = test: Test C flooded paddy test plant response; conditions: Flood, 250 g ai/ha; scale of 0 to 100 where 0 is no effect and 100 is complete control; 13 to 15 days
Summary of the method: as §1

[3] = system: barnyardgrass (Echinochloa crus-galli); test: Test C flooded paddy test plant response; conditions: Flood, 250 g ai/ha; scale of 0 to 100 where 0 is no effect and 100 is complete control; 13 to 15 days
Summary of the method: as §1

[4] = system: ragweed (common ragweed, Ambrosia elatior); test: Test B pre-/postemergence plant response
Summary of the method: (§2)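 Steps: plant seeds in loam soil–sand mix; spray soil preemergence, and in parallel spray 2–10 cm one- to two-leaf plants postemergence; hold ~10 days in greenhouse; visually rate injury against untreated controls (0 = no effect, 100 = complete control).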

kochia (Kochia scoparia) = test: Test B pre-/postemergence plant response
Summary of the method: as §2

[5] = system: Italian ryegrass (Lolium multiflorum); test: Test B pre-/postemergence plant response
Summary of the method: as §2

[6] = system: winter wheat (Triticum aestivum); test: Test D pre-/postemergence plant response
Summary of the method: (§3)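 Each compound, in non-phytotoxic solvent with surfactant, was sprayed onto soil right after sowing or onto young plants 2 to 18 cm tall. After 13 to 15 days under greenhouse conditions, effects were judged visually against controls on a 0 (no effect) to 100 (complete control) scale.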

[7] = system: galium (catchweed bedstraw, Galium aparine); test: Test D pre-/postemergence plant response
Summary of the method: as §3

[8] = system: velvetleaf (Abutilon theophrasti); test: Test D pre-/postemergence plant response
Summary of the method: as §3

[9] = system: Italian ryegrass (Lolium multiflorum); test: Test D pre-/postemergence plant response
Summary of the method: as §3

[10] = system: lambsquarters (Chenopodium album); test: Test D pre-/postemergence plant response
Summary of the method: as §3

corn (Zea mays) = test: Test D pre-/postemergence plant response
Summary of the method: as §3

[11] = system: oilseed rape (Brassica napus); test: Test D pre-/postemergence plant response
Summary of the method: as §3

[12] = 125 g ai/ha, postemergence, 0 to 100 scale, 0 no effect, 100 complete control
[13] = Postemergence, 500 g ai/ha, 0 to 100 scale (0 no effect, 100 complete control)
[14] = Preemergence, 125 g ai/ha, 0 to 100 scale (0 no effect, 100 complete control)
[15] = Preemergence, 500 g ai/ha, 0 to 100 scale where 0 is no effect and 100 is complete control
[16] = Postemergence, 31 g ai/ha, scale 0 to 100 (0 no effect, 100 complete control)
[17] = Postemergence, 62 g ai/ha, scale 0 to 100, 0 no effect, 100 complete control
[18] = Postemergence, 125 g ai/ha, scale 0 to 100, 0 no effect, 100 complete control
[19] = Preemergence, 16 g ai/ha, scale 0 to 100 (0 no effect, 100 complete control)
[20] = Preemergence, 31 g ai/ha, scale 0 to 100 (0 no effect, 100 complete control)
[21] = Preemergence, 62 g ai/ha, scale 0 to 100 (0 no effect, 100 complete control)

Clc1cnc(Oc2ccccc2-c2cc(C3CC3)on2)nc1 [Compound 183]
Sedge, Umbrella plant response rating [1]: 75 | Ducksalad plant response rating [2]: 85 | Rice plant response rating (rice (Oryza sativa)): 0 | Barnyardgrass plant response rating [3]: 0 | Plant response rating, Ragweed [4, 12]: 20 | Plant response rating, Ragweed [4, 13]: 30 | Ragweed plant response rating [4, 14]: 0 | Plant response rating, Ragweed [4, 15]: 60 | Plant response rating, Kochia (kochia (Kochia scoparia); [12]): 100 | Plant response rating, Kochia (kochia (Kochia scoparia); [13]): 100 | Kochia plant response rating (kochia (Kochia scoparia); [14]): 80 | Plant response rating, Kochia (kochia (Kochia scoparia); [15]): 100 | Plant response rating, Ryegrass, Italian [5, 12]: 40 | Plant response rating, Ryegrass, Italian [5, 13]: 70 | Ryegrass, Italian plant response rating [5, 14]: 20 | Plant response rating, Ryegrass, Italian [5, 15]: 40 | Plant response rating (scale 0 to 100), Wheat ([6]; Postemergence, 16 g ai/ha): 5 | Wheat plant response rating [6, 16]: 20 | Wheat plant response rating [6, 17]: 30 | Plant response rating, Wheat [6, 18]: 30 | Plant response rating (scale 0 to 100), Wheat ([6]; Preemergence, 125 g ai/ha): 0 | Plant response rating, Wheat [6, 19]: 0 | Plant response rating, Wheat [6, 20]: 0 | Plant response rating, Wheat [6, 21]: 0 | Plant response rating (scale 0 to 100), Galium ([7]; Postemergence, 16 g ai/ha): 65 | Galium plant response rating [7, 16]: 65 | Plant response rating, Galium [7, 17]: 95 | Plant response rating, Galium [7, 18]: 95 | Plant response rating (scale 0 to 100), Galium ([7]; Preemergence, 125 g ai/ha): 95 | Plant response rating, Galium [7, 19]: 50 | Plant response rating, Galium [7, 20]: 50 | Plant response rating, Galium [7, 21]: 95 | Plant response rating (scale 0 to 100), Velvetleaf ([8]; Postemergence, 16 g ai/ha): 30 | Velvetleaf plant response rating [8, 16]: 55 | Velvetleaf plant response rating [8, 17]: 55 | Plant response rating, Velvetleaf [8, 18]: 55 | Plant response rating (scale 0 to 100), Velvetleaf ([8]; Preemergence, 125 g ai/ha): 100 | Plant response rating, Velvetleaf [8, 19]: 40 | Plant response rating, Velvetleaf [8, 20]: 80 | Plant response rating, Velvetleaf [8, 21]: 90 | Plant response rating (scale 0 to 100), Ryegrass, Italian ([9]; Postemergence, 16 g ai/ha): 0 | Ryegrass, Italian plant response rating [9, 16]: 0 | Ryegrass, Italian plant response rating [9, 17]: 5 | Plant response rating, Ryegrass, Italian [9, 18]: 10 | Plant response rating (scale 0 to 100), Ryegrass, Italian ([9]; Preemergence, 125 g ai/ha): 50 | Plant response rating, Ryegrass, Italian [9, 19]: 0 | Plant response rating, Ryegrass, Italian [9, 20]: 0 | Plant response rating, Ryegrass, Italian [9, 21]: 15 | Plant response rating (scale 0 to 100), Lambsquarters ([10]; Postemergence, 16 g ai/ha): 35 | Lambsquarters plant response rating [10, 16]: 65 | Lambsquarters plant response rating [10, 17]: 65 | Plant response rating, Lambsquarters [10, 18]: 75 | Plant response rating (scale 0 to 100), Lambsquarters ([10]; Preemergence, 125 g ai/ha): 100 | Plant response rating, Lambsquarters [10, 19]: 80 | Plant response rating, Lambsquarters [10, 20]: 85 | Plant response rating, Lambsquarters [10, 21]: 90 | Plant response rating (scale 0 to 100), Corn (corn (Zea mays); Postemergence, 16 g ai/ha): 10 | Corn plant response rating (corn (Zea mays); [16]): 15 | Plant response rating, Corn (corn (Zea mays); [17]): 15 | Plant response rating, Corn (corn (Zea mays); [18]): 20 | Plant response rating (scale 0 to 100), Corn (corn (Zea mays); Preemergence, 125 g ai/ha): 5 | Plant response rating, Corn (corn (Zea mays); [19]): 0 | Plant response rating, Corn (corn (Zea mays); [20]): 0 | Plant response rating, Corn (corn (Zea mays); [21]): 0 | Plant response rating (scale 0 to 100), Oilseed Rape ([11]; Postemergence, 16 g ai/ha): 5 | Oilseed Rape plant response rating [11, 16]: 85 | Oilseed Rape plant response rating [11, 17]: 100 | Plant response rating, Oilseed Rape [11, 18]: 100 | Plant response rating (scale 0 to 100), Oilseed Rape ([11]; Preemergence, 125 g ai/ha): 100 | Plant response rating, Oilseed Rape [11, 19]: 50 | Plant response rating, Oilseed Rape [11, 20]: 100 | Plant response rating, Oilseed Rape [11, 21]: 100

Clc1cnc(Oc2ccccc2-c2ccon2)nc1 [Compound 185]
Sedge, Umbrella plant response rating [1]: 0 | Ducksalad plant response rating [2]: 0 | Rice plant response rating (rice (Oryza sativa)): 0 | Barnyardgrass plant response rating [3]: 0 | Plant response rating, Ragweed [4, 12]: 70 | Plant response rating, Ragweed [4, 13]: 100 | Ragweed plant response rating [4, 14]: 10 | Plant response rating, Ragweed [4, 15]: 90 | Plant response rating, Kochia (kochia (Kochia scoparia); [12]): 90 | Plant response rating, Kochia (kochia (Kochia scoparia); [13]): 100 | Kochia plant response rating (kochia (Kochia scoparia); [14]): 40 | Plant response rating, Kochia (kochia (Kochia scoparia); [15]): 100 | Plant response rating, Ryegrass, Italian [5, 12]: 0 | Plant response rating, Ryegrass, Italian [5, 13]: 0 | Ryegrass, Italian plant response rating [5, 14]: 0 | Plant response rating, Ryegrass, Italian [5, 15]: 0 | Plant response rating (scale 0 to 100), Wheat ([6]; Postemergence, 16 g ai/ha): 0 | Wheat plant response rating [6, 16]: 0 | Wheat plant response rating [6, 17]: 0 | Plant response rating, Wheat [6, 18]: 0 | Plant response rating (scale 0 to 100), Galium ([7]; Postemergence, 16 g ai/ha): 0 | Galium plant response rating [7, 16]: 0 | Plant response rating, Galium [7, 17]: 5 | Plant response rating, Galium [7, 18]: 5 | Plant response rating (scale 0 to 100), Velvetleaf ([8]; Postemergence, 16 g ai/ha): 5 | Velvetleaf plant response rating [8, 16]: 10 | Velvetleaf plant response rating [8, 17]: 10 | Plant response rating, Velvetleaf [8, 18]: 25 | Plant response rating (scale 0 to 100), Ryegrass, Italian ([9]; Postemergence, 16 g ai/ha): 0 | Ryegrass, Italian plant response rating [9, 16]: 0 | Ryegrass, Italian plant response rating [9, 17]: 0 | Plant response rating, Ryegrass, Italian [9, 18]: 0 | Plant response rating (scale 0 to 100), Lambsquarters ([10]; Postemergence, 16 g ai/ha): 10 | Lambsquarters plant response rating [10, 16]: 10 | Lambsquarters plant response rating [10, 17]: 15 | Plant response rating, Lambsquarters [10, 18]: 20 | Plant response rating (scale 0 to 100), Corn (corn (Zea mays); Postemergence, 16 g ai/ha): 0 | Corn plant response rating (corn (Zea mays); [16]): 0 | Plant response rating, Corn (corn (Zea mays); [17]): 5 | Plant response rating, Corn (corn (Zea mays); [18]): 5 | Plant response rating (scale 0 to 100), Oilseed Rape ([11]; Postemergence, 16 g ai/ha): 0 | Oilseed Rape plant response rating [11, 16]: 0 | Oilseed Rape plant response rating [11, 17]: 0 | Plant response rating, Oilseed Rape [11, 18]: 0
